Blank lines part the entries; values can stand above or below the molecule they belong to.
Columns and labels:
human mAChR M1 [1] = target: T1, human mAChR M1 (Homo sapiens, UniProt P11229); experiment: mAChR M1 cell-based functional assay (calcium mobilization), PAM mode: increase in the EC20 acetylcholine response
T1 sequence (P11229 1-460): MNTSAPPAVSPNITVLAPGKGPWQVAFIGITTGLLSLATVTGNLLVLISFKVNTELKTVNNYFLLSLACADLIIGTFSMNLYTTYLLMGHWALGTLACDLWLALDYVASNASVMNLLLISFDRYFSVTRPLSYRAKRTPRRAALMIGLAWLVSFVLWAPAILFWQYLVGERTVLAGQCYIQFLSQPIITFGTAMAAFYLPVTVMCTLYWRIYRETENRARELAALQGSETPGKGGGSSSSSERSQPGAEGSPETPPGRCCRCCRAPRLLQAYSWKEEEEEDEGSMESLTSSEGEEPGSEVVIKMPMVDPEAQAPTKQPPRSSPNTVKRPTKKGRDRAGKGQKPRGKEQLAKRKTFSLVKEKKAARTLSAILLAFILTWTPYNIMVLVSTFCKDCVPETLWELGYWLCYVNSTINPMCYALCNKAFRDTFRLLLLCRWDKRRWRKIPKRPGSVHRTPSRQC
Summary of the method: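 PAM readout is the concentration-dependent rise in the EC20 acetylcholine calcium signal, fitted to a four-parameter logistic (EC50, Emax). Compounds were preincubated from 4 s before ACh at 144 s (EC20) and 230 s (EC80). hM1-expressing CHO-K1 cells loaded with Fluo-4, FDSS ratio read.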

human mAChR M1 [2] = target: T1, human mAChR M1; experiment: mAChR M1 cell-based functional assay (calcium mobilization), agonist mode: compound alone, Emax relative to acetylcholine maximum; conditions: for Agonist Activity Human M1 EC50 / EC50: human mAChR M1; for Emax: relative to the maximum for acetylcholine
Summary of the method: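 Agonist activity is the concentration-dependent rise in intracellular calcium (Fluo-4, 1 Hz read) after compound addition, measured before any acetylcholine was added, in stable hM1 CHO-K1 cells. Curves were 11-point, 1:3 dilutions fitted by four-parameter logistic. Emax is given as a fraction of maximal acetylcholine response.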

SMILES: [2H]C1([2H])c2ncccc2C(=O)N1Cc1c(F)cc(-c2ccc(OC)c3c2cnn3C([2H])([2H])[2H])cc1F [Compound 69, 6-(2,6-difluoro-4-(7-methoxy-1-(methyl-d3)-1H-indazol-4-yl)benzyl)-6,7-dihydro-5H-pyrrolo[3,4-b]pyridin-5-one-7,7-d2]
EC50 (human mAChR M1 [1]): 2190 nM | Emax (human mAChR M1 [1]): 68% | Agonist Activity Human M1 EC50 (human mAChR M1 [2]): Inactive | Emax (human mAChR M1 [2]): 2%

SMILES: [2H]C1([2H])c2ncccc2C(=O)N1Cc1c(F)cc(-c2ccc(OCC3CCO3)c3nn(C)cc23)cc1F (stereo not drawn) [Compound 135, 6-(2,6-difluoro-4-(2-methyl-7-(oxetan-2-ylmethoxy)-2H-indazol-4-yl)benzyl)-6,7-dihydro-5H-pyrrolo[3,4-b]pyridin-5-one-7,7-d2]
EC50 (human mAChR M1 [1]): 405 nM | Emax (human mAChR M1 [1]): 78% | EC50 (human mAChR M1 [2]): 7520 nM | Emax (human mAChR M1 [2]): 26%

SMILES: [2H]C1([2H])c2ncccc2C(=O)N1Cc1c(C)cc(-c2ccc(C(F)(F)F)c3nn(C)cc23)cc1F [Compound 200, 6-(2-fluoro-6-methyl-4-(2-methyl-7-(trifluoromethyl)-2H-indazol-4-yl)benzyl)-6,7-dihydro-5H-pyrrolo[3,4-b]pyridin-5-one-7,7-d2]
EC50 (human mAChR M1 [1]): 768 nM | Emax (human mAChR M1 [1]): 83% | EC50 (human mAChR M1 [2]): ≥ 10000 nM | Emax (human mAChR M1 [2]): 15%

SMILES: [2H]C1([2H])c2ncccc2C(=O)N1Cc1ccc(-c2ccc(OCCOC)c3nn(C([2H])([2H])[2H])cc23)cc1F [Compound 117, 6-(2-fluoro-4-(7-(2-methoxyethoxy)-2-(methyl-d3)-2H-indazol-4-yl)benzyl)-6,7-dihydro-5H-pyrrolo[3,4-b]pyridin-5-one-7,7-d2]
EC50 (human mAChR M1 [1]): 317 nM | Emax (human mAChR M1 [1]): 70% | EC50 (human mAChR M1 [2]): ≥ 10000 nM | Emax (human mAChR M1 [2]): 21%

SMILES: [2H]C1([2H])c2ncccc2C(=O)N1Cc1c(C)cc(-c2cccc3nn(C)cc23)cc1F (single isomer, unassigned) [Compound 155, 6-(2-Fluoro-6-methyl-4-(2-methyl-2H-indazol-4-yl)benzyl)-6,7-dihydro-5H-pyrrolo[3,4-b]pyridin-5-one-7,7-d2]
EC50 (human mAChR M1 [1]): 2480 nM | Emax (human mAChR M1 [1]): 82% | EC50 (human mAChR M1 [2]): 8250 nM | Emax (human mAChR M1 [2]): 34%

SMILES: [2H]C1([2H])c2ncccc2C(=O)N1Cc1c(C)cc(-c2ccc3nn(C([2H])([2H])[2H])cc3c2)cc1F [Compound 160, 6-(2-fluoro-6-methyl-4-(2-(methyl-d3)-2H-indazol-5-yl)benzyl)-6,7-dihydro-5H-pyrrolo[3,4-b]pyridin-5-one-7,7-d2]
EC50 (human mAChR M1 [1]): 396 nM | Emax (human mAChR M1 [1]): 83% | EC50 (human mAChR M1 [2]): ≥ 10000 nM | Emax (human mAChR M1 [2]): 13%

SMILES: [2H]C1([2H])c2ncccc2C(=O)N1Cc1c(F)cc(-c2ccc(O[C@@H]3CCOC3)c3nn(C)cc23)cc1F [Compound 137, (R)-6-(2,6-difluoro-4-(2-methyl-7-((tetrahydrofuran-3-yl)oxy)-2H-indazol-4-yl)benzyl)-6,7-dihydro-5H-pyrrolo[3,4-b]pyridin-5-one-7,7-d2]
EC50 (human mAChR M1 [1]): 256 nM | Emax (human mAChR M1 [1]): 74% | EC50 (human mAChR M1 [2]): 7920 nM | Emax (human mAChR M1 [2]): 53%

SMILES: [2H]C1([2H])c2ncccc2C(=O)N1Cc1c(F)cc(-c2ccc(C)c3nn(C)cc23)cc1OCC(C)C [Compound 213, 6-(4-(2,7-dimethyl-2H-indazol-4-yl)-2-fluoro-6-isobutoxybenzyl)-6,7-dihydro-5H-pyrrolo[3,4-b]pyridin-5-one-7,7-d2]
EC50 (human mAChR M1 [1]): 1520 nM | Emax (human mAChR M1 [1]): 81% | Agonist Activity Human M1 EC50 (human mAChR M1 [2]): Inactive | Emax (human mAChR M1 [2]): 3%

SMILES: [2H]C1([2H])c2ncccc2C(=O)N1Cc1c(F)cc(-c2ccc(Cl)c3nn(C)cc23)cc1OCC(C)C [Compound 215, 6-(4-(7-chloro-2-methyl-2H-indazol-4-yl)-2-fluoro-6-isobutoxybenzyl)-6,7-dihydro-5H-pyrrolo[3,4-b]pyridin-5-one-7,7-d2]
EC50 (human mAChR M1 [1]): 2380 nM | Emax (human mAChR M1 [1]): 83% | Agonist Activity Human M1 EC50 (human mAChR M1 [2]): Inactive | Emax (human mAChR M1 [2]): 2%

SMILES: [2H]C1([2H])c2ncccc2C(=O)N1Cc1ccc(-c2cccc3nn(C)cc23)cc1C [Compound 29, 6-(2-methyl-4-(2-methyl-2H-indazol-4-yl)benzyl)-6,7-dihydro-5H-pyrrolo[3,4-b]pyridin-5-one-7,7-d2]
EC50 (human mAChR M1 [1]): 632 nM | Emax (human mAChR M1 [1]): 81% | EC50 (human mAChR M1 [2]): 7860 nM | Emax (human mAChR M1 [2]): 33%

SMILES: [2H]C1([2H])c2ncccc2C(=O)N1Cc1c(F)cc(-c2ccc(OC3CCOC3)c3nn(C([2H])([2H])[2H])cc23)cc1F (stereo not drawn) [Compound 128, 6-(2,6-difluoro-4-(2-(methyl-d3)-7-((tetrahydrofuran-3-yl)oxy)-2H-indazol-4-yl)benzyl)-6,7-dihydro-5H-pyrrolo[3,4-b]pyridin-5-one-7,7-d2]
EC50 (human mAChR M1 [1]): 428 nM | Emax (human mAChR M1 [1]): 63% | EC50 (human mAChR M1 [2]): 6070 nM | Emax (human mAChR M1 [2]): 18%

SMILES: [2H]C1([2H])c2ncccc2C(=O)N1Cc1c(F)cc(-c2cccc3nn(C)cc23)cc1F [Compound 1, 6-(2,6-difluoro-4-(2-methyl-2H-indazol-4-yl)benzyl)-6,7-dihydro-5H-pyrrolo[3,4-b]pyridin-5-one-7,7-d2]
EC50 (human mAChR M1 [1]): 538 nM | Emax (human mAChR M1 [1]): 84% | Agonist Activity Human M1 EC50 (human mAChR M1 [2]): Inactive | Emax (human mAChR M1 [2]): 8%

SMILES: [2H]C1([2H])c2ncccc2C(=O)N1Cc1ccc(-c2cccc3nn(C)cc23)cc1C(C)C [Compound 233, 6-(2-isopropyl-4-(2-methyl-2H-indazol-4-yl)benzyl)-6,7-dihydro-5H-pyrrolo[3,4-b]pyridin-5-one-7,7-d2]
EC50 (human mAChR M1 [1]): ≥ 10000 nM | Emax (human mAChR M1 [1]): 43% | Agonist Activity Human M1 EC50 (human mAChR M1 [2]): Inactive | Emax (human mAChR M1 [2]): 1%

SMILES: [2H]C1([2H])c2ncccc2C(=O)N1Cc1c(F)cc(-c2ccc(OCCOC)c3nn(C)cc23)cc1Cl [Compound 170, 6-(2-chloro-6-fluoro-4-(7-(2-methoxyethoxy)-2-methyl-2H-indazol-4-yl)benzyl)-6,7-dihydro-5H-pyrrolo[3,4-b]pyridin-5-one-7,7-d2]
EC50 (human mAChR M1 [1]): 322 nM | Emax (human mAChR M1 [1]): 81% | Agonist Activity Human M1 EC50 (human mAChR M1 [2]): Inactive | Emax (human mAChR M1 [2]): 9%

More lines, now with the values ahead:

EC50 (human mAChR M1 [1]): 1840 nM | Emax (human mAChR M1 [1]): 79% | Agonist Activity Human M1 EC50 (human mAChR M1 [2]): Inactive | Emax (human mAChR M1 [2]): 2%
SMILES: [2H]C1([2H])c2ncccc2C(=O)N1Cc1c(F)cc(-c2cccc3c2cnn3C(C)C)cc1F [Compound 64, 6-(2,6-difluoro-4-(1-isopropyl-1H-indazol-4-yl)benzyl)-6,7-dihydro-5H-pyrrolo[3,4-b]pyridin-5-one-7,7-d2]

EC50 (human mAChR M1 [1]): 436 nM | Emax (human mAChR M1 [1]): 69% | EC50 (human mAChR M1 [2]): > 10000 nM | Emax (human mAChR M1 [2]): 2%
SMILES: [2H]C1([2H])c2ncccc2C(=O)N1Cc1c(F)cc(-c2ccc(OC)c3n[nH]cc23)cc1F [Compound 38, 6-(2,6-difluoro-4-(7-methoxy-2H-indazol-4-yl)benzyl)-6,7-dihydro-5H-pyrrolo[3,4-b]pyridin-5-one-7,7-d2]

EC50 (human mAChR M1 [1]): > 10000 nM | Emax (human mAChR M1 [1]): 47% | Agonist Activity Human M1 EC50 (human mAChR M1 [2]): Inactive | Emax (human mAChR M1 [2]): 1%
SMILES: [2H]C1([2H])c2ncccc2C(=O)N1Cc1c(F)cc(-c2cc(F)c(Cl)c3nn(C)cc23)cc1F [Compound 245, 6-(4-(7-chloro-6-fluoro-2-methyl-2H-indazol-4-yl)-2,6-difluorobenzyl)-6,7-dihydro-5H-pyrrolo[3,4-b]pyridin-5-one-7,7-d2]

EC50 (human mAChR M1 [1]): 122 nM | Emax (human mAChR M1 [1]): 73% | EC50 (human mAChR M1 [2]): 8020 nM | Emax (human mAChR M1 [2]): 50%
SMILES: [2H]C1([2H])c2ncc(O)cc2C(=O)N1Cc1c(F)cc(-c2cccc3nn(C([2H])([2H])[2H])cc23)cc1F [Compound 141, 6-(2,6-difluoro-4-(2-(methyl-d3)-2H-indazol-4-yl)benzyl)-3-hydroxy-6,7-dihydro-5H-pyrrolo[3,4-b]pyridin-5-one-7,7-d2]

EC50 (human mAChR M1 [1]): 288 nM | Emax (human mAChR M1 [1]): 72% | EC50 (human mAChR M1 [2]): 8200 nM | Emax (human mAChR M1 [2]): 54%
SMILES: [2H]C1([2H])c2ncccc2C(=O)N1Cc1c(F)cc(-c2ccc(OC3CCOCC3)c3nn(C)cc23)cc1F [Compound 140, 6-(2,6-difluoro-4-(2-methyl-7-((tetrahydro-2H-pyran-4-yl)oxy)-2H-indazol-4-yl)benzyl)-6,7-dihydro-5H-pyrrolo[3,4-b]pyridin-5-one-7,7-d2]

EC50 (human mAChR M1 [1]): 193 nM | Emax (human mAChR M1 [1]): 86% | EC50 (human mAChR M1 [2]): 8120 nM | Emax (human mAChR M1 [2]): 26%
SMILES: [2H]C1([2H])c2ncccc2C(=O)N1Cc1c(F)cc(-c2ccc(OCC3(C#N)CC3)c3nn(C)cc23)cc1F [Compound 174, 1-(((4-(3,5-difluoro-4-((5-oxo-5,7-dihydro-6H-pyrrolo[3,4-b]pyridin-6-yl-7,7-d2)methyl)phenyl)-2-methyl-2H-indazol-7-yl)oxy)methyl)cyclopropane-1-carbonitrile]

EC50 (human mAChR M1 [1]): 626 nM | Emax (human mAChR M1 [1]): 55% | Agonist Activity Human M1 EC50 (human mAChR M1 [2]): Inactive | Emax (human mAChR M1 [2]): 1%
SMILES: [2H]C1([2H])c2ncccc2C(=O)N1Cc1c(F)cc(-c2cc(Cl)cc3nn(C)cc23)cc1F [Compound 75, 6-(4-(6-chloro-2-methyl-2H-indazol-4-yl)-2,6-difluorobenzyl)-6,7-dihydro-5H-pyrrolo[3,4-b]pyridin-5-one-7,7-d2]

— US20240228489A1, “POSITIVE ALLOSTERIC MODULATORS OF THE MUSCARINIC ACETYLCHOLINE RECEPTOR M1” (Vanderbilt University, priority 2021, published 2024)
